Holding throughout (type): biochemical
The target in one assay is ERK2 (Homo sapiens (Human), UniProt P28482). Nature of the assay: ERK2 Alphascreen.
Assay [1] has as its target T1, activated ERK2 (Homo sapiens (Human), UniProt P28482). Nature of the assay: Activated ERK2 kinase assay, ERK2 New conditions (AlphaScreen, ERKtide phosphorylation). The note with it: 0.25 nM ERK2, 200 nM ERKtide peptide, 35 μM ATP, 30 min preincubation. The procedure, abridged:
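Read-out is AlphaScreen with anti-phospho-EGFR (Thr669) antibody after EDTA quench and overnight dark incubation. Reaction: 0.25 nM ERK2, 30 min compound preincubation, then 200 nM ERKtide plus 35 µM ATP for 2–3 h at ambient temperature, pH 7.5. IC50 by four-parameter fit.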
Background: Alpha assays give light when donor and acceptor beads are brought close together.

Assay [2] addresses T1, activated ERK2. As to the kind of experiment: Activated ERK2 (20 pM) Kinase Assay (AlphaScreen, ERKtide phosphorylation). The following applies: 0.02 nM ERK2, 400 nM ERKtide peptide, 35 μM ATP, 30 min preincubation. The procedure, abridged: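 AlphaScreen read-out (anti-phospho-EGFR Thr669 antibody, protein A acceptor/streptavidin donor beads) of ERKtide (400 nM) phosphorylation by 20 pM activated ERK2 at 35 μM ATP.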

Molecules are shown by their SMILES.

For orientation: IC50 means the concentration that gives 50% inhibition.

Sequence of ERK2 (P28482 whole entry, species assumed): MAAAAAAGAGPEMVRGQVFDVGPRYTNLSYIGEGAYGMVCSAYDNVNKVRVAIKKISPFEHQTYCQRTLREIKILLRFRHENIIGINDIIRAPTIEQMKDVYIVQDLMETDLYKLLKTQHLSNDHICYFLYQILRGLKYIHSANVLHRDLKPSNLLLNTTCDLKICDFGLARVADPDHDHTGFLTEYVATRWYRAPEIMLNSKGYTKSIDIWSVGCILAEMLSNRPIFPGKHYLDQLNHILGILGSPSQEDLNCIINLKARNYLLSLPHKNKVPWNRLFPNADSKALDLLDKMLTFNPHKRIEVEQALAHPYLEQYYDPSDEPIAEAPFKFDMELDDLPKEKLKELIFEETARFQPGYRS
T1 sequence (P28482 whole entry): as the sequence (P28482 whole entry, species assumed) above

`Nc1ncc(C2CCNCC2)cc1-c1ccc(C(=O)N[C@H](CO)c2ccccc2)c(F)c1` [Example 2, (S)-4-(2-amino-5-(piperidin-4-yl)pyridin-3-yl)-2-fluoro-N-(2-hydroxy-1-phenylethyl)benzamide] gave an IC50 against ERK2 of 192 nM. For the compound `C[C@@H](NC(=O)c1ccc(-c2cc([C@@H]3CCC(=O)N(C)C3)cnc2N)cc1F)c1cccc(Cl)c1` [Example 40, 4-(2-amino-5-((S)-1-methyl-6-oxopiperidin-3-yl)pyridin-3-yl)-N—((R)-1-(3-chlorophenyl)ethyl)-2-fluorobenzamide], the results for the concentration for half-maximal inhibition (IC50) against activated ERK2 [1] and at activated ERK2 [2] were 2.46 nM and 1.26 nM, respectively. For `Nc1ncc(C2CCOCC2)cc1-c1ccc(C(=O)N[C@H](CO)c2ccccc2)cc1` [Example 64, (S)-4-(2-amino-5-(tetrahydro-2H-pyran-4-yl)pyridin-3-yl)-N-(2-hydroxy-1-phenylethyl)benzamide], the 50% inhibitory concentration (IC50) against ERK2 was 3.64 nM; on activated ERK2 [2], 4.36 nM.

In the case of `CO[C@H]1CC[C@H](c2cnc(N)c(-c3ccc(C(=O)NCc4ccccc4)c(F)c3)n2)CC1` [Example 116, 4-(3-amino-6-((1r,4r)-4-methoxycyclohexyl)pyrazin-2-yl)-N-benzyl-2-fluorobenzamide], the IC50 was found to be 18.9 nM on activated ERK2 [1] and 9.42 nM at activated ERK2 [2]. For `Cc1nn(C)cc1-c1cnc(N)c(-c2ccc(C(=O)N[C@H](CO)c3cccc(Cl)c3)c(F)c2)n1` [Example 127, (S)-4-(3-amino-6-(1,3-dimethyl-1H-pyrazol-4-yl)pyrazin-2-yl)-N-(1-(3-chlorophenyl)-2-hydroxyethyl)-2-fluorobenzamide] the same measures were 0.243 nM and 0.0604 nM.

For the compound `Cc1c(-c2cnc(N)c(-c3ccc(C(=O)N[C@H](CO)c4cccc(Cl)c4)c(F)c3)c2)cnn1C` [Example 151, (S)-4-(2-amino-5-(1,5-dimethyl-1H-pyrazol-4-yl)pyridin-3-yl)-N-(1-(3-chlorophenyl)-2-hydroxyethyl)-2-fluorobenzamide], the half-maximal inhibitory concentration (IC50) was found to be 0.115 nM against activated ERK2 [1] and 0.0233 nM at activated ERK2 [2].

On to `Cc1nn(C)cc1-c1cnc(N)c(-c2ccc(C(=O)N[C@H](CO)c3cccc(Cl)c3)c(F)c2)c1` [Example 152, (S)-4-(2-amino-5-(1,3-dimethyl-1H-pyrazol-4-yl)pyridin-3-yl)-N-(1-(3-chlorophenyl)-2-hydroxyethyl)-2-fluorobenzamide], for which the IC50 against activated ERK2 [1] stood at 0.145 nM; against activated ERK2 [2], 0.041 nM.

In the case of `COCCn1cc(-c2cnc(N)c(-c3ccc(C(=O)N[C@H](CO)c4cccc(Cl)c4)c(F)c3)c2)cn1` [Example 172, (S)-4-(2-amino-5-(1-(2-methoxyethyl)-1H-pyrazol-4-yl)pyridin-3-yl)-N-(1-(3-chlorophenyl)-2-hydroxyethyl)-2-fluorobenzamide], the IC50 came to 0.158 nM against activated ERK2 [1] and 0.0785 nM at activated ERK2 [2]. For the compound `Nc1ncc(C2CCOCC2)nc1-c1ccc(C(=O)NCc2cccc(Cl)c2)c(F)c1` [Example 173, 4-(3-amino-6-(tetrahydro-2H-pyran-4-yl)pyrazin-2-yl)-N-(3-chlorobenzyl)-2-fluorobenzamide], the midpoint of inhibition against ERK2, the IC50, lay at 0.758 nM.

For the compound `Nc1ncc([C@H]2CC[C@H](N)CC2)nc1-c1ccc(C(=O)N[C@H](CO)c2cccc(Cl)c2)c(F)c1` [Example 191, 4-(3-amino-6-((1r,45)-4-aminocyclohexyl)pyrazin-2-yl)-N—((S)-1-(3-chlorophenyl)-2-hydroxyethyl)-2-fluorobenzamide], the IC50 on activated ERK2 [1] came out at 4.53 nM; on activated ERK2 [2], 1.49 nM. Turning to `Nc1ncc([C@H]2CC[C@@H](N)CC2)nc1-c1ccc(C(=O)N[C@H](CO)c2cccc(Cl)c2)c(F)c1` [Example 192, 4-(3-amino-6-((1s,4R)-4-aminocyclohexyl)pyrazin-2-yl)-N—((S)-1-(3-chlorophenyl)-2-hydroxyethyl)-2-fluorobenzamide], the IC50 came out at 8.04 nM on activated ERK2 [1] and 4.93 nM on activated ERK2 [2].

For `Cn1cc(-c2cnc(N)c(-c3ccc(C(=O)N[C@H](CO)c4cccc(Cl)c4)c(F)c3)c2)cn1` [Example 263, (S)-4-(2-amino-5-(1-methyl-1H-pyrazol-4-yl)pyridin-3-yl)-N-(1-(3-chlorophenyl)-2-hydroxyethyl)-2-fluorobenzamide], the half-maximal inhibitory concentration (IC50) against activated ERK2 [1] was found to be 0.191 nM; against activated ERK2 [2] it was 0.0923 nM. On the same counts, the results for `Nc1ncc(C2CCOCC2)nc1-c1ccc(C(=O)N[C@H](CO)c2cccc(F)c2)c(F)c1` [Example 279, (S)-4-(3-amino-6-(tetrahydro-2H-pyran-4-yl)pyrazin-2-yl)-2-fluoro-N-(1-(3-fluorophenyl)-2-hydroxyethyl) benzamide] are 0.518 nM and 0.429 nM.

For `Cc1cccc([C@@H](CO)NC(=O)c2ccc(-c3cc(-c4cn(C)nc4C)cnc3N)cc2F)c1` [Example 283, (S)-4-(2-amino-5-(1,3-dimethyl-1H-pyrazol-4-yl)pyridin-3-yl)-2-fluoro-N-(2-hydroxy-1-(m-tolyl)ethyl) benzamide], the IC50 amounted to 0.169 nM at activated ERK2 [1] and 0.0378 nM against activated ERK2 [2].

With `Cn1cc(-c2cnc(N)c(-c3ccc(C(=O)N[C@H](CO)c4cc(F)cc(Cl)c4)c(F)c3)c2)cn1` [Example 289, (S)-4-(2-amino-5-(1-methyl-1H-pyrazol-4-yl)pyridin-3-yl)-N-(1-(3-chloro-5-fluorophenyl)-2-hydroxyethyl)-2-fluorobenzamide], the values for the concentration for half-maximal inhibition (IC50) on activated ERK2 [1] and on activated ERK2 [2] were 0.192 nM and 0.0814 nM, respectively. Consider `CCn1cc(-c2cnc(N)c(-c3ccc(C(=O)N[C@H](CO)c4cccc(Cl)c4)c(F)c3)c2)cn1` [Example 297, (S)-4-(2-amino-5-(1-ethyl-1H-pyrazol-4-yl)pyridin-3-yl)-N-(1-(3-chlorophenyl)-2-hydroxyethyl)-2-fluorobenzamide], for which the figures for the IC50 against activated ERK2 [1] and at activated ERK2 [2] were 0.153 nM and 0.0715 nM, respectively. For `Cn1nncc1-c1cnc(N)c(-c2ccc(C(=O)N[C@H](CO)c3cccc(Cl)c3)c(F)c2)c1` [Example 300, (S)-4-(2-amino-5-(1-methyl-1H-1,2,3-triazol-5-yl)pyridin-3-yl)-N-(1-(3-chlorophenyl)-2-hydroxyethyl)-2-fluorobenzamide], the IC50 against activated ERK2 [1] worked out at 0.228 nM; at activated ERK2 [2], 0.0655 nM. For `Cc1cccc([C@@H](CO)NC(=O)c2ccc(-c3nc(C4CCOCC4)cnc3N)cc2F)c1` [Example 309, (S)-4-(3-amino-6-(tetrahydro-2H-pyran-4-yl)pyrazin-2-yl)-2-fluoro-N-(2-hydroxy-1-(m-tolyl)ethyl) benzamide] the same measures were 0.104 nM and 0.0263 nM.

Take `Nc1ncc(C2CCCCC2)nc1-c1ccc(C(=O)NCc2ccccc2)c(F)c1` [Example 421, 4-(3-amino-6-cyclo-hexylpyrazin-2-yl)-N-benzyl-2-fluorobenzamide]: the IC50 against activated ERK2 [1] was 12.6 nM; against activated ERK2 [2] it was 6.38 nM.

As for `C[C@@H](NC(=O)c1ccc(-c2nc(C3CCCCC3)cnc2N)cc1F)c1cc(F)cc(S(C)(=O)=O)c1` [Example 423, (R)-4-(3-amino-6-cyclo-hexylpyrazin-2-yl)-2-fluoro-N-(1-(3-fluoro-5-(methylsulfonyl)phenyl)ethyl) benzamide], the IC50 against activated ERK2 [1] is 0.147 nM; against activated ERK2 [2] it was 0.0614 nM. `Nc1ncc(C2=CCCCC2)nc1-c1ccc(C(=O)NCc2ccccc2)c(F)c1` [Example 424, 4-(3-amino-6-(cyclohex-1-en-1-yl)pyrazin-2-yl)-N-benzyl-2-fluorobenzamide]: the IC50 at activated ERK2 [1] amounted to 155 nM; against activated ERK2 [2] it was 113 nM. For `Nc1ncc(C2=CCCCC2)nc1-c1ccc(C(=O)N[C@H](CO)c2cccc(Cl)c2)c(F)c1` [Example 425, (S)-4-(3-amino-6-(cyclohex-1-en-1-yl)pyrazin-2-yl)-N-(1-(3-chlorophenyl)-2-hydroxyethyl)-2-fluorobenzamide] the same measures were 0.907 nM and 0.359 nM. Regarding `C[C@@H](NC(=O)c1ccc(-c2nc(C3=CCCCC3)cnc2N)cc1F)c1cc(F)cc(S(C)(=O)=O)c1` [Example 426, (R)-4-(3-amino-6-(cyclohex-1-en-1-yl)pyrazin-2-yl)-2-fluoro-N-(1-(3-fluoro-5-(methylsulfonyl)phenyl)ethyl) benzamide], the IC50 came to 1.36 nM against activated ERK2 [1] and 0.585 nM against activated ERK2 [2].

Take `Nc1ncc(C2=CCOCC2)nc1-c1ccc(C(=O)NCc2ccccc2)c(F)c1` [Example 427, 4-(3-amino-6-(3,6-dihydro-2H-pyran-4-yl)pyrazin-2-yl)-N-benzyl-2-fluorobenzamide]: the IC50 against activated ERK2 [1] was 16.7 nM; against activated ERK2 [2], 6.41 nM. Consider `Nc1ncc(C2=CCOCC2)nc1-c1ccc(C(=O)N[C@H](CO)c2cccc(Cl)c2)c(F)c1` [Example 428, (S)-4-(3-amino-6-(3,6-dihydro-2H-pyran-4-yl)pyrazin-2-yl)-N-(1-(3-chlorophenyl)-2-hydroxyethyl)-2-fluorobenzamide], for which the figures for the IC50 against activated ERK2 [1] and on activated ERK2 [2] were 0.219 nM and 0.0759 nM, respectively. `C[C@@H](NC(=O)c1ccc(-c2nc(C3=CCOCC3)cnc2N)cc1F)c1cc(F)cc(S(C)(=O)=O)c1` [Example 429, (R)-4-(3-amino-6-(3,6-dihydro-2H-pyran-4-yl)pyrazin-2-yl)-2-fluoro-N-(1-(3-fluoro-5-(methylsulfonyl)phenyl)ethyl) benzamide]: the IC50 against activated ERK2 [1] amounted to 0.503 nM; on activated ERK2 [2] it was 0.221 nM. Regarding `COCC(=O)N[C@H]1CC[C@H](c2cnc(N)c(-c3ccc(C(=O)N[C@H](CO)c4cccc(Cl)c4)c(F)c3)n2)CC1` [Example 430, 4-(3-amino-6-((1r,4S)-4-(2-methoxy-acetamido)cyclohexyl)pyrazin-2-yl)-N-((S)-1-(3-chlorophenyl)-2-hydroxyethyl)-2-fluorobenzamide], the IC50 is 0.787 nM against activated ERK2 [1] and 0.343 nM against activated ERK2 [2].

These data come from patent US9242996B2 (Novartis AG, priority 2013, dated 2016).
